Reference: patent US12478619B2, “Method of treatment with milsaperidone” (Vanda Pharmaceuticals Inc., priority 2023, dated 2025)
One block for each compound: values may come before it.

Experiments:
[1] = Study 3201: serum urate in patients with acute manic episodes associated with bipolar I disorder, iloperidone vs placebo, 4 weeks; type: in vivo, human; settings: for Serum urate LS Mean Change (SE) from baseline: iloperidone 24 mg/day (12 mg bid) oral, ANCOVA
Experimental: A multi-center, randomized, double-blind, placebo-controlled study (“Study 3201”) is performed to evaluate the safety and efficacy of iloperidone for four (4) weeks in the treatment of patients with acute manic episodes associated with bipolar I disorder. Patients in the study are randomized to orally receive either iloperidone at a dose of 24 mg/day given in a divided dose as 12 mg twice daily (bid), or matched placebo.
These increases are illustrated in FIG. 3 using solid data points.
To test the hypothesis of altered urate serum levels in association with variants in the SLC2A9 gene, whole genome sequencing is conducted from blood samples, genotype status is obtained through standard data analysis, and linear models for SLC2A9 variants are performed on urate concentration in samples collected at baseline (corrected for PCs, age, sex) and samples collected at the end of the study (EOS).

[2] = human, in vivo
Experimental: A study is performed to evaluate the efficacy and safety of iloperidone compared with placebo and active control (ziprasidone) in subjects with acute schizophrenia (“Study 3101”). Patients are randomized to receive one of iloperidone at a dose of 24 mg/day given in a divided dose as 12 mg twice daily (bid), active comparator ziprasidone, or placebo. […] Uric acid results are converted to SI units using the conversion 1 mg/dL=59.5 μmol/L.
Results are provided in Table 7 below, including an increase of 28.0 μmol/L for iloperidone compared to a decrease of 4.2 μmol/L in placebo groups.
Patient genotypes are obtained via a commercial 500 k SNP Gene Chip Human Mapping Array. To test the hypothesis of altered urate serum levels in association with variants in SLC2A9, Linear models for SLC2A9 variants are performed on urate at baseline levels (corrected for PCs, age, sex) followed by samples collected at end of study (EOS).

- Increase of serum urate levels ([1]; 24 mg/day given as 12 mg bid, value in mg/dL): ~0.457 mg/dL
- Serum urate LS Mean Difference (95% CI), iloperidone vs placebo ([1]; Day 7, 24 mg/day): 1.3 (−9.29, 11.88) μmol/L
- Serum urate LS Mean Change (SE) from baseline ([1]; Day 7): −2.7 (−4.07), 199 μmol/L
- Serum urate LS Mean Difference (95% CI), iloperidone vs placebo ([1]; Day 14, 24 mg/day): 15.3 (4.50, 26.15) μmol/L
- Serum urate LS Mean Change (SE) from baseline ([1]; Day 14): 12.6 (−4.28), 173 μmol/L
- Serum urate LS Mean Difference (95% CI), iloperidone vs placebo ([1]; Day 21, 24 mg/day): 21.0 (8.91, 33.18) μmol/L
- Serum urate LS Mean Change (SE) from baseline ([1]; Day 21): 19.1 (−5.24), 157 μmol/L
- Serum urate LS Mean Change (SE) from baseline ([1]; Day 28 (endpoint)): 27.2 (−4.93), 142 μmol/L
- Serum urate LS Mean Change (SE) from baseline ([1]; Day 28 (endpoint), listed as FANAPT® iloperidone): approximately 27.2 μmol/L
- Serum urate LS Mean Change (SE) from baseline ([1]; Day 28 (endpoint), listed as iloperidone): 27.2 µmol/L
- Increase in serum urate from baseline compared to placebo ([1]; Day 28, 24 mg/day): 4 fold
- Serum urate LS Mean Difference (95% CI), iloperidone vs placebo ([1]; Day 28, 24 mg/day): 27.1 (14.94, 39.20) μmol/L
- Change in serum urate from baseline (mean, observed cases) ([1]; Day 28, 24 mg/day, FIG. 3): 33.4 µmol/L
- LS Mean Change (SE) in Serum Urate ([1]; Day 28, genotype AA): 25.74 (6.53), 73 μmol/L
- Serum urate LS Mean Difference (95% CI), iloperidone vs placebo ([1]; Day 28, genotype AA): 31.91 (14.82, 49) μmol/L
- LS Mean Change (SE) in Serum Urate ([1]; Day 28, genotype AA, sex F): 25.48 (9.16), 34 μmol/L
- Serum urate LS Mean Difference (95% CI), iloperidone vs placebo ([1]; Day 28, genotype AA, sex F): 27.85 (2.93, 52.76) μmol/L
- LS Mean Change (SE) in Serum Urate ([1]; Day 28, genotype AA, sex M): 28.89 (8.7), 39 μmol/L
- Serum urate LS Mean Difference (95% CI), iloperidone vs placebo ([1]; Day 28, genotype AA, sex M): 35.52 (12.82, 58.22) μmol/L
- LS Mean Change (SE) in Serum Urate ([1]; Day 28, genotype AG): 24.62 (7.61), 51 μmol/L
- Serum urate LS Mean Difference (95% CI), iloperidone vs placebo ([1]; Day 28, genotype AG): 14.84 (−4.18, 33.86) μmol/L
- LS Mean Change (SE) in Serum Urate ([1]; Day 28, genotype AG, sex F): 0.06 (10.14), 27 μmol/L
- Serum urate LS Mean Difference (95% CI), iloperidone vs placebo ([1]; Day 28, genotype AG, sex F): −7.9 (−34.82, 19.03) μmol/L
- LS Mean Change (SE) in Serum Urate ([1]; Day 28, genotype AG, sex M): 53.41 (10.84), 24 μmol/L
- Serum urate LS Mean Difference (95% CI), iloperidone vs placebo ([1]; Day 28, genotype AG, sex M): 40.79 (14.61, 66.96) μmol/L
- LS Mean Change (SE) in Serum Urate ([1]; Day 28, genotype GG): 40.09 (12.36), 18 μmol/L
- Serum urate LS Mean Difference (95% CI), iloperidone vs placebo ([1]; Day 28, genotype GG): 56.95 (18.91, 94.99) μmol/L
- LS Mean Change (SE) in Serum Urate ([1]; Day 28, genotype GG, sex F): −0.19 (19.49), 7 μmol/L
- Serum urate LS Mean Difference (95% CI), iloperidone vs placebo ([1]; Day 28, genotype GG, sex F): 3.08 (−50.97, 57.13) μmol/L
- LS Mean Change (SE) in Serum Urate ([1]; Day 28, genotype GG, sex M): 65.61 (15.42), 11 μmol/L
- Serum urate LS Mean Difference (95% CI), iloperidone vs placebo ([1]; Day 28, genotype GG, sex M): 102.96 (48.93, 156.99) μmol/L
- Mean Change (SE) from Baseline in Serum Urate, Observed Cases ([1]; Day 28, rs7442295 genotype AA, 24 mg/day): 30.5 (50.99), 73 μmol/L
- Mean Change (SE) from Baseline in Serum Urate, Observed Cases ([1]; Day 28, rs7442295 genotype AG, 24 mg/day): 31.9 (59.39), 51 μmol/L
- Mean Change (SE) from Baseline in Serum Urate, Observed Cases ([1]; Day 28, rs7442295 genotype GG, 24 mg/day): 49.1 (60.56), 18 μmol/L
- LS Mean Change (SE) in Serum Urate ([1]; EOS (last observation carried forward), genotype AA, sex F): 14.93 (8.59), 41 μmol/L
- LS Mean Change (SE) in Serum Urate ([1]; EOS (last observation carried forward), genotype AA, sex M): 20.63 (7.29), 60 μmol/L
- LS Mean Change (SE) in Serum Urate ([1]; EOS (last observation carried forward), genotype AG, sex F): −2.27 (8.75), 39 μmol/L
- LS Mean Change (SE) in Serum Urate ([1]; EOS (last observation carried forward), genotype AG, sex M): 32.96 (8.74), 41 μmol/L
- LS Mean Change (SE) in Serum Urate ([1]; EOS (last observation carried forward), genotype GG, sex F): −6.03 (20.3), 7 μmol/L
- LS Mean Change (SE) in Serum Urate ([1]; EOS (last observation carried forward), genotype GG, sex M): 67.03 (15.38), 12 μmol/L
- Percentage of patients with serum urate above ULN ([1]; EOS, Female (ULN 394 μmol/l), rs7442295 AA): 15.0%
- Percentage of patients with serum urate above ULN ([1]; EOS, Female (ULN 394 μmol/l), rs7442295 AG): 8.1%
- Percentage of patients with serum urate above ULN ([1]; EOS, Female (ULN 394 μmol/l), rs7442295 GG): 0.0%
- Percentage of patients with serum urate above ULN ([1]; EOS, Male (ULN 453 μmol/l), rs7442295 AA): 12.3%
- Percentage of patients with serum urate above ULN ([1]; EOS, Male (ULN 453 μmol/l), rs7442295 AG): 13.5%
- Percentage of patients with serum urate above ULN ([1]; EOS, Male (ULN 453 μmol/l), rs7442295 GG): 33.3%
- Percentage of patients with serum urate above ULN ([1]; EOS, Male (ULN 453 μmol/l), rs7442295 GG, listed as iloperidone): about 33.3%
- LS Mean Change (SE) in Serum Urate ([1]; EOS, genotype AA): 16.73 (5.66), 101 μmol/L
- Serum urate LS Mean Difference (95% CI), iloperidone vs placebo ([1]; EOS, genotype AA): 18.23 (3.19, 33.28) μmol/L
- Serum urate LS Mean Difference (95% CI), iloperidone vs placebo ([1]; EOS, genotype AA, sex F): 15.97 (−6.71, 38.64) μmol/L
- Serum urate LS Mean Difference (95% CI), iloperidone vs placebo ([1]; EOS, genotype AA, sex M): 18.99 (−0.89, 38.86) μmol/L
- LS Mean Change (SE) in Serum Urate ([1]; EOS, genotype AG): 15.05 (6.29), 80 μmol/L
- Serum urate LS Mean Difference (95% CI), iloperidone vs placebo ([1]; EOS, genotype AG): 8.61 (−8.27, 25.48) μmol/L
- Serum urate LS Mean Difference (95% CI), iloperidone vs placebo ([1]; EOS, genotype AG, sex F): −1.4 (−25.85, 23.06) μmol/L
- Serum urate LS Mean Difference (95% CI), iloperidone vs placebo ([1]; EOS, genotype AG, sex M): 19.58 (−2.91, 42.08) μmol/L
- LS Mean Change (SE) in Serum Urate ([1]; EOS, genotype GG): 40.4 (12.41), 19 μmol/L
- Serum urate LS Mean Difference (95% CI), iloperidone vs placebo ([1]; EOS, genotype GG): 55.4 (18.68, 92.13) μmol/L
- Serum urate LS Mean Difference (95% CI), iloperidone vs placebo ([1]; EOS, genotype GG, sex F): 4.54 (−50.43, 59.52) μmol/L
- Serum urate LS Mean Difference (95% CI), iloperidone vs placebo ([1]; EOS, genotype GG, sex M): 88.45 (38.7, 138.21) μmol/L
- Increases in serum urate levels in iloperidone-treated patients homozygous for rs7442295 (G) ([1]; GG genotype compared with other iloperidone-treated patients): nearly twice as large
- Increase in percentage of male rs7442295-G/G individuals with high urate levels, baseline to end of study ([1]; male, GG, from about 8.3% at baseline): approximately 4 fold
SMILES: COc1cc(C(C)=O)ccc1OCCCN1CCC(c2noc3cc(F)ccc23)CC1 [Iloperidone, 1-[4-[3-[4-(6-flouro-1,2-benzisoxazol-3-yl)-1-piperidinyl]propoxy]-3-methoxyphenyl]ethanone]
- Change in SUC relative to baseline at EOS, rs7442295-G/G vs A/G or A/A ([1]; iloperidone-treated patients, FIG. 9, panova<0.0001): significantly greater change from baseline

- Serum urate LS mean change from baseline to endpoint, ziprasidone treatment arm [2]: 13.1 µmol/L
SMILES: O=C1Cc2cc(CCN3CCN(c4nsc5ccccc45)CC3)c(Cl)cc2N1 [ziprasidone]
